From patent US20250230226A1, “PLXDC1/PLXDC2 ACTIVATORS AND THEIR USE IN THE TREATMENT OF BLOOD VESSEL DISORDERS” (THE REGENTS OF THE UNIVERSITY OF CALIFORNIA, priority 2019, published 2025)

Assays:
[1] = system: CT26.CL25 colon cancer tumor endothelial cells; test: Colon CT26 ex vivo model of tumor angiogenesis; assay type: cell-based, mouse
Procedure, shortened: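 Pieces of CT26 mouse tumor (~0.075 mm³) embedded in Matrigel and cultured in endothelial growth medium at 37 °C, 5% CO2 until endothelial outgrowth appeared (about 7 days), then treated. About 48 h after drug addition, live/dead staining with fluorescein diacetate and propidium iodide was imaged in green and red channels.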

[2] = system: LL/2 lung cancer tumor endothelial cells; test: Lung LL2 ex vivo model of tumor angiogenesis; assay type: cell-based, mouse; settings: 20 μm; for 48 hrs (morphology observations): LL/2 tumor endothelial cells; for Cell death: drug treatment for two days, ratio of red area to total endothelial cell area
Procedure, shortened: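 LL2 mouse tumor fragments (~0.075 mm³) embedded in Matrigel and cultured in endothelial growth medium at 37 °C until endothelial outgrowth (~4 days) before treatment. Cell death assessed e.g. 48 h after drug by fluorescein diacetate (live)/propidium iodide (dead) staining and red/green fluorescence imaging.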

[3] = system: choroidal endothelial cells; test: Ex vivo model of choroidal angiogenesis (FIG. 2); assay type: cell-based
Method: FIG. 2A-E. Comparison of compound 369 (Table 3) with the current anti-angiogenic drug in an ex vivo model of choroidal angiogenesis. A. A schematic diagram of the timeframe of the experiment. […] Treatment lasts for two days before cell death and survival are analyzed. B. Control experiment without any drug treatment at day 7. The white circle in the middle delineates the piece of choroid/RPE that was embedded to initiate neovascularization. C. […] Eylea was added at 10 μM. […] The compound was added at 10 μM. In B-D, green cells are live cells and red cells are dead cells. E. Quantitation of the experiments described in B-D. The amount of new endothelial cells in the untreated control is defined as 100%.

[4] = system: tumor endothelial cells; test: Ex vivo model of tumor angiogenesis, comparison with anti-VEGF drug and PEDF (FIG. 4); assay type: cell-based; settings: cells grown 5 days, test reagents added for 2 days
Method: FIG. 4A-F. A comparison between an anti-VEGF drug, PEDF and two compounds that target PLXDC1/PLXDC2 in an ex vivo model of tumor angiogenesis. […] Tumor endothelial cells were grown for 5 days before test reagents were added for 2 days. Green cells are live cells and red cells are dead cells.
• 1. The day before the experiment, all necessary tools were sprayed with 70% ethanol and sterilized under UV light overnight, including blade, dissecting and micro-dissecting scissors and […]. 24-well dishes were placed at 4° C. to pre-chill plates and Matrigel was thawed, 24 hours before tumor dissection. • 2. 70% ethanol was sprayed on working bench. Two sterile petri dishes were prepared with 10 ml sterile PBS. The following steps 3 and 4 are necessary for mouse tumor models. For fresh human tumor, steps 3 and 4 are skipped. • 3. The tumor-bearing mice were euthanized. 70% ethanol was sprayed on the mouse and the tumor was removed using sterilized dissecting tools (avoid the fur). The tumor was rinsed in petri dish with sterile PBS to remove ethanol and fur. […] When the assay was ready to be analyzed for cell death (e.g., 48 hours after drug addition), the dye mixture was prepared by mixing 6 μl of green dye to stain live cells (5 mg/ml Fluorescein diacetate or FDA in DMSO) with 30 μl of red dye (2.5 mg/ml Propidium iodide or PI in PBS) to stain dead cells in an Eppendorf tube. […]

[5] = system: tumor blood vessels; test: Systemic administration in tumor-bearing mouse (FIG. 7); assay type: in vivo
From the text: FIG. 7A-D. Systemic administration of a compound that targets PLXDC1 and PLXDC2 kills existing tumor blood vessels and leads to massive tumor necrosis. […] The high specificity of the treatment is illustrated by the healthy skin blood vessels that cover the dead yellow tumor. C. The tumor from control mouse in A is cut open to reveal that it is rich in tumor blood vessels and is a live tumor. D. The tumor from compound-treated mouse in B is cut open to reveal a lack of tumor blood vessels and a necrotic tumor with yellow cheese-like appearance (coagulative necrosis). Coagulative necrosis is exactly what is expected for a treatment that can kill existing tumor blood vessels to block major blood supplies to the tumor. Precise and efficient killing of tumor blood vessels to cause massive tumor death by necrosis, which has been achieved by the compound 369 targeting PLXDC1/PLXDC2, cannot be achieved by any existing drugs or known antiangiogenic factors.
The tumor died of massive coagulative necrosis, exactly the kind of cell death caused by killing blood vessels.

[6] = biological target: T1, PLXDC1 (Homo sapiens, UniProt Q8IUK5); test: Gfi1b promotor luciferase receptor activation assay, PLXDC1-expressing cells (FIG. 18A, 19); assay type: cell-based; settings: compound treatments 1 day; basal activity defined as 1
T1 construct: expressed in transfected cells
T1 sequence (Q8IUK5 19-500): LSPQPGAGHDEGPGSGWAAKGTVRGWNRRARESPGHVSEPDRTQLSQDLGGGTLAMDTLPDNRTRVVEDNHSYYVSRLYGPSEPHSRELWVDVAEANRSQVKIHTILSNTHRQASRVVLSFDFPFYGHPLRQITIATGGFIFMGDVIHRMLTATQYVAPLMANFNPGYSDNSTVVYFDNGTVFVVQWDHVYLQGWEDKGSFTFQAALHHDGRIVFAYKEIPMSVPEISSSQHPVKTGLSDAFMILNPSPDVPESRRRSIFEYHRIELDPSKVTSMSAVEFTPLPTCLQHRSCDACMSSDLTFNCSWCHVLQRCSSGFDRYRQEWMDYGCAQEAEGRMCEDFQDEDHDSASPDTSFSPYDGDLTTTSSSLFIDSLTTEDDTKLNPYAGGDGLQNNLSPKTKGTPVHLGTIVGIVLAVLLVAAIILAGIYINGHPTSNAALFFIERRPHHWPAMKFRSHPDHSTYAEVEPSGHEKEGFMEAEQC
From the text: FIG. 18A-B show activation of PLXDC1 and PLXDC2 by small molecules. […] All compound treatments were done for 1 day. Basal promotor activity of the PLXDC1-expressing cells is defined as 1.
Basal promotor activity of the PLXDC1-expressing cells is defined as 1. The basal activity of PLXDC1-expressing cells (Control) are higher than cells without PLXDC1, consistent promotor activation by the ectopic expression of the receptor without ligands.
By linking its promotor to a luciferase reporter gene, this example developed a PLXDC1 receptor activation assay.

Gfi1b promotor activity in PLXDC1-expressing cells [6] | SMILES | 48 hrs (morphology observations after 48 hours) ([1]; Conc. 20 μm, 48 hours) | cytotoxicity at 20 µM ([1]; Mus musculus, Endothelial cell, 48 h, read-out: Cell death) | 48 hrs (morphology observations) [2] | Cell death [2] | Killing of endothelial cells in choroidal angiogenesis ([3]; added at 10 μM at day 7, treatment two days) | Effect on healthy tissue (choroid and retinal pigment epithelium) ([3]; added at 10 μM, two days) | Killing of existing tumor endothelial cells [4] | Killing of existing tumor blood vessels and tumor death [5]
 | CCCCCCCOc1ccc(S(=O)(=O)c2cnc3ccc([S+](C)[O-])cc3c2N2CCN(C)CC2)cc1 (centres unmarked) [Compound 259] | *** (100% of endothelial cells vesicularize in cell shape) | 100% | *** (more than 50% but less than 100% of endothelial cells vesicularize in cell shape) | 95% |  |  |  | 
 | CCCCCCCCCCCCOc1ccc(S(=O)(=O)c2cnc3ccc([S+](C)[O-])cc3c2N2CCC(N3CCC(N4CCN(CCO)CC4)CC3)CC2)cc1F (centres unmarked) [Compound 369] |  |  | * (50% or less of cells vesicularize in cell shape) | 20% | can kill the endothelial cells | without affecting the healthy tissue | can kill existing tumor endothelial cells | can kill existing tumor blood vessels and lead to strong tumor death
does not activate this promoter | O=c1[nH]cc(F)c(=O)[nH]1 [Fluorouracil, 5-fluorouracil, reference compound] |  |  |  |  |  |  |  | 
